According to ChEMBL document CHEMBL3507680, “University of Dundee, Gates Library screen for HepG2 cell viability”:

Assay: Human HepG2 cell viability assay in 384 well format
Format: toxicity, cell-based
Set-up: dose 125 nL, time 70.5 hour; concentration not given beside the values
Details: HepG2 cells, read-out: Inhibition
`O=C(c1ccc(Cl)cc1)N1CCC(N2CCCCC2=O)CC1` showed a cytotoxicity at 70.5 h of -7.46%.
`OC1(Cn2ccc3ncccc32)CCN(Cc2cccs2)CC1` showed a cytotoxicity at 70.5 h of -0.455%.
In the case of `CNC(=O)CNCC1(O)CCCN(Cc2ccc(F)c(F)c2)C1=O` (stereo not given), the cytotoxicity at 70.5 h is reported as 29%.
With `CCNc1ncc(C2CC(=O)Nc3c2cnn3Cc2ccncc2)cn1` (stereo not given) the cytotoxicity at 70.5 h was 5.87%.
For `O=C1C(NCc2nnc3n2CCCC3)CCN1c1ccccc1F` (stereo not given), the cytotoxicity at 70.5 h was -20.6%.
In the case of `COc1ccc([C@@H]2CN(Cc3cccnc3N)C[C@H]2NC(C)=O)cc1`, the cytotoxicity at 70.5 h is reported as -8.12%.
Compound `Cc1ccc(CN2CC[C@H]3[C@H](CO[C@H]3CN(C)C)C2)o1` has a cytotoxicity at 70.5 h of -11.7%.
`CC(=O)Nc1nc(C2CCN(C(=O)c3cccnc3)CC2)cs1` showed a cytotoxicity at 70.5 h of -15.5%.
For `CCc1nc(C2CCCN(C(=O)c3ccc4[nH]nnc4c3)C2)no1` (stereo not given), the cytotoxicity at 70.5 h was -11%.
`Cc1cc(C)n(C2CN(CC(=O)N(C)Cc3cnn(C)c3)C2)n1` showed a cytotoxicity at 70.5 h of -7%.
`O=C(C[C@H]1[C@H]2CN(c3ncccn3)C[C@@H]12)Nc1cccnc1` showed a cytotoxicity at 70.5 h of 4.76%.
Work on `COc1ccc(C(C)C)cc1C1CC(=O)NCc2nc(N(C)C)sc21` (stereo not given) yielded a cytotoxicity at 70.5 h of 13.4%.
Compound `CSc1ccc(C(=O)N2CCCC(Nc3ccc(F)cc3)C2)cc1` (stereo not given) has a cytotoxicity at 70.5 h of -0.171%.
For `Cn1cccc1-c1cc(C(=O)NCCc2nnc(N)s2)[nH]n1`, the cytotoxicity at 70.5 h was 4.96%.
In the case of `CC(c1ccncc1)N(CCN(C)C)C(=O)Nc1ccc(Cl)cc1` (stereo not given), the cytotoxicity at 70.5 h is reported as -14.7%.
With `COc1ccccc1CN(C)C(=O)c1cc(CN2CCC(O)CC2)on1` the cytotoxicity at 70.5 h was -0.685%.
`C[S+]([O-])c1nncn1CC(=O)c1cccc(C(F)(F)F)c1` (stereo not given) gave a cytotoxicity at 70.5 h of -1.93%.
`CNC(=O)CC1CCN(C(=O)NCc2cn3c(C)cccc3n2)CC1` gave a cytotoxicity at 70.5 h of -14.3%.
`O=C(NCc1cccc(F)c1F)c1cc(CN2CCCC(O)C2)on1` (stereo not given) showed a cytotoxicity at 70.5 h of 4.85%.
Compound `COCc1noc(-c2nn(-c3ccc(F)c(F)c3)c3c2CCC3)n1` has a cytotoxicity at 70.5 h of 26%.
`CCN1C(=O)C2(CCN(CCN(C)C)CC2)c2ccccc21` gave a cytotoxicity at 70.5 h of 19.9%.
Compound `Cc1cc(C)c(C(=O)N(C)CCN(C)C(=O)OC(C)(C)C)[nH]1` has a cytotoxicity at 70.5 h of 6.57%.
`Cc1ccc2nc(C(=O)N3CCNC(=O)C3c3cccc(F)c3)cn2c1` (stereo not given) gave a cytotoxicity at 70.5 h of 24.1%.
With `O=C(NCC1(CO)CC1)c1ccccc1Br` the cytotoxicity at 70.5 h was -8.75%.
Work on `COCCN(CCOC)Cc1c(C)nc2ccccc2c1O` yielded a cytotoxicity at 70.5 h of 5.31%.
In the case of `Cc1nc(CN2CCCC(N(C)CCc3cccs3)C2)no1` (stereo not given), the cytotoxicity at 70.5 h is reported as 8.18%.
`CCCN1CCCC1c1ccc(C(=O)N2CCOCC2)s1` (stereo not given) showed a cytotoxicity at 70.5 h of 0.549%.
`O=C(Cc1cccs1)N1C[C@H]2CN(CC3CCCO3)CC[C@H]2C1` (stereo not given in full) showed a cytotoxicity at 70.5 h of -6.25%.
`Cc1cc(C(=O)Nc2ccc3c(c2)N(C)CCN(C)C3)on1` showed a cytotoxicity at 70.5 h of -5.18%.
Compound `O=C(CN1CCCC(c2ccc(C(=O)O)cc2)C1)NC1CC1` (stereo not given) has a cytotoxicity at 70.5 h of -5.55%.
`Cc1csc(N2CCN(C(=O)C3(C#N)CCCC3)CC2)n1` showed a cytotoxicity at 70.5 h of -5.35%.
Work on `COc1ccccc1OC1CN(C(=O)C2CNCC(=O)N2)C1` (stereo not given) yielded a cytotoxicity at 70.5 h of -9.64%.
`Cc1cc(C(F)(F)F)nc(C2COCCN2S(C)(=O)=O)n1` (stereo not given) gave a cytotoxicity at 70.5 h of -6.03%.
With `Cc1ncsc1C(=O)N(C)Cc1ccncc1` the cytotoxicity at 70.5 h was 28.4%.
With `CN1CCN(c2cc(CNC(=O)c3cnccn3)ccn2)CC1` the cytotoxicity at 70.5 h was -3.35%.
With `Cc1nn(C)cc1C(C)Nc1ncnc2sccc12` (stereo not given) the cytotoxicity at 70.5 h was 19.1%.
`Cc1ncsc1CN1CCn2c(COc3cccnc3)cnc2C1C` (stereo not given) showed a cytotoxicity at 70.5 h of -2.69%.
In the case of `CC(CO)NC(=O)c1ccc2[nH]/c(=N\S(C)(=O)=O)sc2c1` (stereo not given), the cytotoxicity at 70.5 h is reported as -3.5%.
In the case of `O=C(NCC(F)(F)F)C1=NOC2(CCCNC2)C1` (stereo not given), the cytotoxicity at 70.5 h is reported as 0.364%.
Compound `Cc1cnn(CC2CCCCN2Cc2nnc(-c3ccco3)o2)c1` (stereo not given) has a cytotoxicity at 70.5 h of -4.33%.
With `Cc1cc(N)nc(C2(C)CCCN2C(=O)Cc2ccc(F)cc2)n1` (stereo not given) the cytotoxicity at 70.5 h was -8.7%.
Compound `O=C1N(Cc2cccnc2)CCC12CCCNC2` (stereo not given) has a cytotoxicity at 70.5 h of 10.6%.
`COCCCNc1c(C#N)c2c(c3nncn13)CN(C)CC2` gave a cytotoxicity at 70.5 h of -28.4%.
In the case of `CCn1c(C2CCCN(Cc3ccc4ccccc4n3)C2)nn(C)c1=O` (stereo not given), the cytotoxicity at 70.5 h is reported as -3.7%.
With `O=C1CCCN1CCCC(=O)N1CCC2(CC1)[C@H](O)C[C@@H]2O` the cytotoxicity at 70.5 h was -0.254%.
